Laboratory results from US20200239530A1, “COMPOUNDS AND METHODS OF MODULATING PROTEIN DEGRADATION” (Vividion Therapeutics, Inc., priority 2017, published 2020).
Read-outs that look alike come from different tables or passages of the source. Values belong to the molecule of their own block, whether it stands above or below them.

How the values were obtained:
Test in all cases: Cysteine liganding, probe competition
Assay type in all cases: binding
[1] = target: T1, UniProt E7ERA6 (Homo sapiens, UniProt E7ERA6)
T1 construct: 200 μL of lysate containing 5 mg/ml proteome was treated with 2 μL of 100× compound stock; endogenous in cells
T1 sequence (E7ERA6 whole entry, change not shown): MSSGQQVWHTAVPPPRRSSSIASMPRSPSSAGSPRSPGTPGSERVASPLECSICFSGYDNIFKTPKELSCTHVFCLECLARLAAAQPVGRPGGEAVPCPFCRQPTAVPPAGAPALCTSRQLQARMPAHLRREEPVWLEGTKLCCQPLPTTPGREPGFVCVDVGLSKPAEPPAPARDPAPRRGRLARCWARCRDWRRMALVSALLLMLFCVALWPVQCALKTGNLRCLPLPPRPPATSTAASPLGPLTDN
From the text: (§1) The following 96-well sample prep protocol was used for sample preparation.

[2] = target: T2, UniProt O00635 (Homo sapiens, UniProt O00635)
T2 construct: 200 μL of lysate containing 5 mg/ml proteome was treated with 2 μL of 100× compound stock; endogenous in cells
T2 sequence (O00635 whole entry, change not shown): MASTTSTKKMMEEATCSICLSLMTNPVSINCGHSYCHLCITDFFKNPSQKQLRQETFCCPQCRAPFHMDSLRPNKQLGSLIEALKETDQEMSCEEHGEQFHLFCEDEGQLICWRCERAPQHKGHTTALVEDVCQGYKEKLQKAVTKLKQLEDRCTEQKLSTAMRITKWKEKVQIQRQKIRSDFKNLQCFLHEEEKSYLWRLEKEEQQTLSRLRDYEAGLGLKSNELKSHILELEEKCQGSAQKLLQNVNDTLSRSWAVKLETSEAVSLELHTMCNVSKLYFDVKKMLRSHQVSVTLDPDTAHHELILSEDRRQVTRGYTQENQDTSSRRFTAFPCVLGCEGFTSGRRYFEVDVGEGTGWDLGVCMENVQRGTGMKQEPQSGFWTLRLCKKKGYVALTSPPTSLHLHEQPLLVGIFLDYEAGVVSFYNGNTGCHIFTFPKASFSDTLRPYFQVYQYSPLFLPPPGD
From the text: as §1

[3] = target: T3, UniProt P51948 (Homo sapiens, UniProt P51948); details: read-out: percent inhibition
T3 construct: Cells were resuspended in cold PBS on ice and sonicated with a probe sonicator to achieve lysis; endogenous in cells
T3 sequence (P51948 whole entry, change not shown): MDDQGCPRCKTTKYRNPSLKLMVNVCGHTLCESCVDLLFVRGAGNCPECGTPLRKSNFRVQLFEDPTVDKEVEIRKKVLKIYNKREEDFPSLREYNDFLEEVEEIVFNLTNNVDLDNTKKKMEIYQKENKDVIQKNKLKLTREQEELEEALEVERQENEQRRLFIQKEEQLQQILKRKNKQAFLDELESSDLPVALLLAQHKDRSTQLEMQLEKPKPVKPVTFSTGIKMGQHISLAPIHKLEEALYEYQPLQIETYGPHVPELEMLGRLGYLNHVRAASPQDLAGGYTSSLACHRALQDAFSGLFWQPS
From the text: as §1

[4] = target: T4, UniProt Q5U5Q3 (Homo sapiens, UniProt Q5U5Q3); details: read-out: percent inhibition
T4 construct: Cells were resuspended in cold PBS on ice and sonicated with a probe sonicator to achieve lysis; endogenous in cells
From the text: as §1

[5] = target: T5, UniProt Q6Q0C0 (Homo sapiens, UniProt Q6Q0C0)
T5 construct: 200 μL of lysate containing 5 mg/ml proteome was treated with 2 μL of 100× compound stock; endogenous in cells
T5 sequence (Q6Q0C0 1-670): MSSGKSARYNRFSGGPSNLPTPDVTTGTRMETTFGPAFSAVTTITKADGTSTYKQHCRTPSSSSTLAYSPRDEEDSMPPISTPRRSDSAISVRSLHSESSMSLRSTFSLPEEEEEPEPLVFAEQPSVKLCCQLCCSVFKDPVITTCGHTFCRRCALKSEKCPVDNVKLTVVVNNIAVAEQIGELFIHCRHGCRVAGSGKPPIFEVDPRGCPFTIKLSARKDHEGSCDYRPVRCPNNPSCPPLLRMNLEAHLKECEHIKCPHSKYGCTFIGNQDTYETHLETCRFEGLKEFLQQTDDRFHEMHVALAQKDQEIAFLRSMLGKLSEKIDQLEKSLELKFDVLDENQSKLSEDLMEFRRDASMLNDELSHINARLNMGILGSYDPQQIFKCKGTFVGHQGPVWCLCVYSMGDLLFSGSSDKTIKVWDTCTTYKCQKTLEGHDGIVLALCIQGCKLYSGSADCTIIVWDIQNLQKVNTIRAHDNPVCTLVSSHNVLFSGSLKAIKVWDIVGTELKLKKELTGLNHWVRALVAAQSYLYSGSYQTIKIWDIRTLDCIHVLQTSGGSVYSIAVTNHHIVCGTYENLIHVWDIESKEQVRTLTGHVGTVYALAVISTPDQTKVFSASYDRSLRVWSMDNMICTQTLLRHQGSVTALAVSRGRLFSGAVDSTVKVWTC
From the text: as §1

[6] = target: T6, UniProt Q7L0R7 (Homo sapiens, UniProt Q7L0R7)
T6 construct: 200 μL of lysate containing 5 mg/ml proteome was treated with 2 μL of 100× compound stock; endogenous in cells
T6 sequence (Q7L0R7 whole entry, change not shown): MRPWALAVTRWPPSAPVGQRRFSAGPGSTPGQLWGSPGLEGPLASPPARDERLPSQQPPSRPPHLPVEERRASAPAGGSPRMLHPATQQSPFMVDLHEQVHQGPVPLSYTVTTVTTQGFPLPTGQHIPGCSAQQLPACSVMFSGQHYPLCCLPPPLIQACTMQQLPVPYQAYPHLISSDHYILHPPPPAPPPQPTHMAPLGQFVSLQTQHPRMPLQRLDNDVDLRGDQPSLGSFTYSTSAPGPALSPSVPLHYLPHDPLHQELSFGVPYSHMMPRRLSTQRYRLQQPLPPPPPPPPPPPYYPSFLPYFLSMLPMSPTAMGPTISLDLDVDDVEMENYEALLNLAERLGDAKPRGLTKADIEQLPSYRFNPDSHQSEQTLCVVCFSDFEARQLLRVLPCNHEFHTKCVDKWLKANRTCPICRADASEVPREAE
From the text: as §1

[7] = target: T7, UniProt Q7Z6E9 (Homo sapiens, UniProt Q7Z6E9); details: read-out: KB02_100 uM_percent_inhibition
T7 construct: 200 μL of lysate containing 5 mg/ml proteome was treated with 2 μL of 100× compound stock; endogenous in cells
From the text: as §1

[8] = target: T8, UniProt Q96EP0 (Homo sapiens, UniProt Q96EP0); details: 500 uM
T8 construct: 200 μL of lysate containing 5 mg/ml proteome was treated with 2 μL of 100× compound stock; endogenous in cells
From the text: as §1

[9] = target: T9, UniProt Q9C040 (Homo sapiens, UniProt Q9C040)
T9 construct: 200 μL of lysate containing 5 mg/ml proteome was treated with 2 μL of 100× compound stock; endogenous in cells
T9 sequence (Q9C040 whole entry, change not shown): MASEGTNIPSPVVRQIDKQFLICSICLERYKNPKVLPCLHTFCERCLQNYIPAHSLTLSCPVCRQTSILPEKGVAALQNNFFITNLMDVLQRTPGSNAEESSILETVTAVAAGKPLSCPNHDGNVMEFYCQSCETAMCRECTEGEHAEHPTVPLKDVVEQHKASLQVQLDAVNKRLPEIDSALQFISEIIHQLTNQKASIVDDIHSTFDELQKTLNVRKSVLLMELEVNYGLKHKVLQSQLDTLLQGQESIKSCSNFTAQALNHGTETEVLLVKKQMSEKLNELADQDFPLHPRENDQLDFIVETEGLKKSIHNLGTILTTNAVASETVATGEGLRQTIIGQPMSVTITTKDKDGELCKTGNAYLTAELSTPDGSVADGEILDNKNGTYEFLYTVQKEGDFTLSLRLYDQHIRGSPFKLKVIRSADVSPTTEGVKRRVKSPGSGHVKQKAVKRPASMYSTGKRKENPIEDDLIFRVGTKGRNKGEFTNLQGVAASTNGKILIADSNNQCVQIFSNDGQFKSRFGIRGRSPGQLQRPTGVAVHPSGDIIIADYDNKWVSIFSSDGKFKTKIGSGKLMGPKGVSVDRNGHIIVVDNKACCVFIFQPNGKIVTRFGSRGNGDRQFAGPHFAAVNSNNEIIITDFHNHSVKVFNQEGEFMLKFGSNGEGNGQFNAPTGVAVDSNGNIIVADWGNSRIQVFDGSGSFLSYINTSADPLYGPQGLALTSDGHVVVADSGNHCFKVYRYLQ
From the text: as §1

[10] = target: T10, UniProt Q9H000 (Homo sapiens, UniProt Q9H000); details: 100 uM
T10 construct: Cells were resuspended in cold PBS on ice and sonicated with a probe sonicator to achieve lysis; endogenous in cells
From the text: as §1

[11] = target: T11, UniProt Q9NQ86 (Homo sapiens, UniProt Q9NQ86)
T11 construct: 200 μL of lysate containing 5 mg/ml proteome was treated with 2 μL of 100× compound stock; endogenous in cells
T11 sequence (Q9NQ86 whole entry, change not shown): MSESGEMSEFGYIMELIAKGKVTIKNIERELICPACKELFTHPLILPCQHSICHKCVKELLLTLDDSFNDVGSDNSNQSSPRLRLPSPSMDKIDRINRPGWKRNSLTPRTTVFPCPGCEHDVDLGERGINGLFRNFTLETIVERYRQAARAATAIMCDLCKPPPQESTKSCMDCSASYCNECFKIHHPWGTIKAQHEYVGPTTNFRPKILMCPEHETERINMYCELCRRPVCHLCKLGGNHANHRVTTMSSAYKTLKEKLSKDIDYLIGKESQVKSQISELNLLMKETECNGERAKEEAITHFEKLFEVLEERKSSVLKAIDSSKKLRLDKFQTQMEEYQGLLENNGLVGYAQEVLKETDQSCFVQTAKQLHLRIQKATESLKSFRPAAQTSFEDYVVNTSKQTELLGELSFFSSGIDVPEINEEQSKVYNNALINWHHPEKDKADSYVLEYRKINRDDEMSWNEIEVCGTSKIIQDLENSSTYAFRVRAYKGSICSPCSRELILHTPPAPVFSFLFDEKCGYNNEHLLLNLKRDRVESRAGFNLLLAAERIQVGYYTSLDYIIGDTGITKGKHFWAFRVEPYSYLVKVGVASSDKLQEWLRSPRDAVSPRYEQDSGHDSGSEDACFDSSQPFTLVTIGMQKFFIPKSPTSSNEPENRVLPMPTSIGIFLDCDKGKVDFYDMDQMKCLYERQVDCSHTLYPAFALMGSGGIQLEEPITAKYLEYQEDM
From the text: as §1

[12] = target: T12, UniProt Q9NRJ4 (Homo sapiens, UniProt Q9NRJ4); details: read-out: KB02_100 uM_percent_inhibition
T12 construct: 200 μL of lysate containing 5 mg/ml proteome was treated with 2 μL of 100× compound stock; endogenous in cells
From the text: as §1

[13] = target: T13, UniProt A8MQ27 (Homo sapiens, UniProt A8MQ27); details: read-out: percent inhibition
T13 construct: Cells were resuspended in cold PBS on ice and sonicated with a probe sonicator to achieve lysis; endogenous in cells
From the text: as §1

[14] = target: T14, UniProt O14512 (Homo sapiens, UniProt O14512); details: read-out: percent_inhibition
T14 construct: 200 μL of lysate containing 5 mg/ml proteome was treated with 2 μL of 100× compound stock; endogenous in cells
From the text: as §1

[15] = target: T15, UniProt Q13356 (Homo sapiens, UniProt Q13356); details: read-out: KB05_500 uM_percent_inhibition
T15 construct: 200 μL of lysate containing 5 mg/ml proteome was treated with 2 μL of 100× compound stock; endogenous in cells
From the text: as §1

[16] = target: T16, UniProt Q5VTB9 (Homo sapiens, UniProt Q5VTB9); details: read-out: percent_inhibition
T16 construct: 200 μL of lysate containing 5 mg/ml proteome was treated with 2 μL of 100× compound stock; endogenous in cells
From the text: as §1

[17] = target: T17, UniProt Q6ZMN7 (Homo sapiens, UniProt Q6ZMN7); details: read-out: KB05_500 uM_percent_inhibition
T17 construct: 200 μL of lysate containing 5 mg/ml proteome was treated with 2 μL of 100× compound stock; endogenous in cells
From the text: as §1

[18] = target: T18, UniProt Q8N653 (Homo sapiens, UniProt Q8N653); details: read-out: percent inhibition
T18 construct: Cells were resuspended in cold PBS on ice and sonicated with a probe sonicator to achieve lysis; endogenous in cells
From the text: as §1

[19] = target: T19, UniProt Q96AX9 (Homo sapiens, UniProt Q96AX9)
T19 construct: Cells were resuspended in cold PBS on ice and sonicated with a probe sonicator to achieve lysis; endogenous in cells
T19 sequence (Q96AX9 whole entry, change not shown): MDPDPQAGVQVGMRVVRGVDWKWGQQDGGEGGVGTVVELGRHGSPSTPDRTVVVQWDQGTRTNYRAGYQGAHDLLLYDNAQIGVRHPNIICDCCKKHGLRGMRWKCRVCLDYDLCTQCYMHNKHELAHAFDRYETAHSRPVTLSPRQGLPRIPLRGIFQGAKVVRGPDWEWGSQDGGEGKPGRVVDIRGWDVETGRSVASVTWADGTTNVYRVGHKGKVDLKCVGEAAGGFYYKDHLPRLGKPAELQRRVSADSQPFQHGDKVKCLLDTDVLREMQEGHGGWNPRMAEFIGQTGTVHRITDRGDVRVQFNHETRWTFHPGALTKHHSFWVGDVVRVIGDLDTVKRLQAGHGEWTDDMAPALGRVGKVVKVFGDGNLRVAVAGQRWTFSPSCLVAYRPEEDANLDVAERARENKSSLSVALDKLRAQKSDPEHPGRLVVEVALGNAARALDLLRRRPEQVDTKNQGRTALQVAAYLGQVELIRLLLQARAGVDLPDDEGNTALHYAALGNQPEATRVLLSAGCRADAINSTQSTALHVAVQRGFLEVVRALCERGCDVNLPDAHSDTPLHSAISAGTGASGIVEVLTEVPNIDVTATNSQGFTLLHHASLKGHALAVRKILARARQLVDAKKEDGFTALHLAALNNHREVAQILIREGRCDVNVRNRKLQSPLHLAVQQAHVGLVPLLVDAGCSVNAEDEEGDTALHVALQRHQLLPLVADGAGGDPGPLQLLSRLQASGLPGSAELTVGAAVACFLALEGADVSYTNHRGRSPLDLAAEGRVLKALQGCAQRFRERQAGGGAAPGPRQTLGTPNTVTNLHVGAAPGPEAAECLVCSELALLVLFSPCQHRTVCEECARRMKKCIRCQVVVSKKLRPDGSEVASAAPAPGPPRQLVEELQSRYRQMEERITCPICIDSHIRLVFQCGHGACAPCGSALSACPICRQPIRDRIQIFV
From the text: as §1

[20] = target: T20, UniProt Q9C030 (Homo sapiens, UniProt Q9C030); details: read-out: KB05_500 uM_percent_inhibition
T20 construct: 200 μL of lysate containing 5 mg/ml proteome was treated with 2 μL of 100× compound stock; endogenous in cells
From the text: as §1

[21] = target: T21, UniProt Q9UPQ7 (Homo sapiens, UniProt Q9UPQ7)
T21 construct: 200 μL of lysate containing 5 mg/ml proteome was treated with 2 μL of 100× compound stock; endogenous in cells
T21 sequence (Q9UPQ7 whole entry, change not shown): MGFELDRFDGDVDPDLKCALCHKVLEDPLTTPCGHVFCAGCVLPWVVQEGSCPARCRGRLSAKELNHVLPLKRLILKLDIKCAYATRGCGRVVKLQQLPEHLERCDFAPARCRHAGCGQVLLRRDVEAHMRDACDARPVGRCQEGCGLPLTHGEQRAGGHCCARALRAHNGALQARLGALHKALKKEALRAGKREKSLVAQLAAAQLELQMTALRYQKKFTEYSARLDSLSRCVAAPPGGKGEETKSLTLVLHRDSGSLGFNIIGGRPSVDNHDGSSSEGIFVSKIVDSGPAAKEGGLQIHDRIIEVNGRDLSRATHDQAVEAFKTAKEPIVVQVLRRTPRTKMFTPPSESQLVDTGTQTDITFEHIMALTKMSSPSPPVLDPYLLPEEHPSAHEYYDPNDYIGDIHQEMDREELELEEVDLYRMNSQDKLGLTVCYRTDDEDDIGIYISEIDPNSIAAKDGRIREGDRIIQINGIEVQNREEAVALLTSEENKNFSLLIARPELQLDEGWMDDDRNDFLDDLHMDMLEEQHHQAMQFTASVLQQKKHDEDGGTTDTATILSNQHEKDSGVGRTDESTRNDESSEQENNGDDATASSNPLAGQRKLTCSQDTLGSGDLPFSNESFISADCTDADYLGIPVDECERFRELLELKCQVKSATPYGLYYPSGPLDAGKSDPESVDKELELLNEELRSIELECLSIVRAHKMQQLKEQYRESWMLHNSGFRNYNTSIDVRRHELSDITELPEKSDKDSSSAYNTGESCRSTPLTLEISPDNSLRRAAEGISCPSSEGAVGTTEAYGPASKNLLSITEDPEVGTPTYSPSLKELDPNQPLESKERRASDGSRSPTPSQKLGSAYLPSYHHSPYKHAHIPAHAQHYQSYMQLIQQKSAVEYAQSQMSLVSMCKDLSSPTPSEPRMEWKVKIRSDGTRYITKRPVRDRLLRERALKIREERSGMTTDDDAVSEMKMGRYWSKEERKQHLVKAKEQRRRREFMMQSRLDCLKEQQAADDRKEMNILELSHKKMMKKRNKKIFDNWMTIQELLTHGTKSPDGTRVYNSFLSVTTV
From the text: as §1

[22] = target: T22, UniProt O75382 (Homo sapiens, UniProt O75382); details: 100 uM
T22 construct: 200 μL of lysate containing 5 mg/ml proteome was treated with 2 μL of 100× compound stock; endogenous in cells
From the text: as §1

[23] = target: T23, UniProt P14373 (Homo sapiens, UniProt P14373); details: 100 uM
T23 construct: 200 μL of lysate containing 5 mg/ml proteome was treated with 2 μL of 100× compound stock; endogenous in cells
From the text: as §1

[24] = target: T24, UniProt Q15025 (Homo sapiens, UniProt Q15025); details: 100 uM
T24 construct: 200 μL of lysate containing 5 mg/ml proteome was treated with 2 μL of 100× compound stock; endogenous in cells
From the text: as §1

[25] = target: T25, UniProt Q86TM6 (Homo sapiens, UniProt Q86TM6); details: 100 uM
T25 construct: 200 μL of lysate containing 5 mg/ml proteome was treated with 2 μL of 100× compound stock; endogenous in cells
From the text: as §1

[26] = 100 uM, read-out: KB02_100 uM_percent_inhibition
[27] = 500 uM, read-out: KB02_500 uM_percent_inhibition

SMILES: COc1ccc2c(c1)CCCN2C(=O)CCl [KB02]
percent_inhibition ([1]; 500 uM): 38%
inhibition at 500 µM ([1]; read-out: percent_inhibition): 35%
KB02_100 uM_percent_inhibition ([2]; 100 uM): 7%
inhibition at 100 µM ([2]; read-out: KB02_100 uM_percent_inhibition): 8%
inhibition at 100 µM [3]: 3%
inhibition at 100 µM [4]: 5%
inhibition at 100 µM [5, 26]: 3%
inhibition at 500 µM [5, 27]: 47%
inhibition at 100 µM ([5]; read-out: percent_inhibition): 1%
inhibition at 100 µM ([6]; 100 uM, read-out: percent_inhibition): 44%
percent_inhibition ([6]; 500 uM): 42%
inhibition at 500 µM ([6]; 500 uM, read-out: percent_inhibition): 41%
inhibition at 100 µM [7]: 23%
percent_inhibition [8]: 24%
inhibition at 100 µM [9, 26]: 20%
inhibition at 500 µM [9, 27]: 32%
percent inhibition [10]: 24%
inhibition at 100 µM [11, 26]: 27%
KB02_500 uM_percent_inhibition ([11]; 500 uM): 88%
inhibition at 100 µM [12]: 28%

inhibition at 500 µM [13]: 44%
inhibition at 500 µM [14]: 89%
inhibition at 500 µM [15]: 69%
inhibition at 100 µM [16]: 2%
inhibition at 500 µM [17]: 1%
inhibition at 100 µM [18]: 11%
percent inhibition ([19]; 100 uM): 9%
inhibition at 100 µM ([19]; read-out: percent inhibition): 11%
inhibition at 500 µM [20]: 53%
KB05_100 uM_percent_inhibition ([21]; 100 uM): 24%
inhibition at 100 µM ([21]; read-out: KB05_100 uM_percent_inhibition): 20%
SMILES: C=CC(=O)N(c1ccccc1)c1ccc(Br)cc1 [KB05]

SMILES: O=C(CCl)Nc1cc(C(F)(F)F)cc(C(F)(F)F)c1 [KBO3]
KB03_100 uM_percent_inhibition [22]: 45%
KB03_100 uM_percent_inhibition [23]: 13%
percent_inhibition [24]: 3%
percent_inhibition [25]: 19%
